Experimental data as given in US20230078764A1 (Yumanity Therapeutics, Inc., priority 2019, published 2023).

Assays:
human SCD1 = target: T1, human SCD1 (Homo sapiens, UniProt O00767); test: Growth inhibition of yeast strain expressing human SCD1 as sole desaturase (OLE1 deleted), OD600 readout; assay type: cell-based; details: yeast strain expressing human SCD1 as sole desaturase; growth (OD600) after 40 h at 30° C.; read-out: SCD1 IC50
T1 construct: expressed in transfected cells; host or cells: yeast strain with OLE1 deleted, plasmid-borne human SCD1 (selected in SD-Ura)
T1 sequence (O00767 1-359): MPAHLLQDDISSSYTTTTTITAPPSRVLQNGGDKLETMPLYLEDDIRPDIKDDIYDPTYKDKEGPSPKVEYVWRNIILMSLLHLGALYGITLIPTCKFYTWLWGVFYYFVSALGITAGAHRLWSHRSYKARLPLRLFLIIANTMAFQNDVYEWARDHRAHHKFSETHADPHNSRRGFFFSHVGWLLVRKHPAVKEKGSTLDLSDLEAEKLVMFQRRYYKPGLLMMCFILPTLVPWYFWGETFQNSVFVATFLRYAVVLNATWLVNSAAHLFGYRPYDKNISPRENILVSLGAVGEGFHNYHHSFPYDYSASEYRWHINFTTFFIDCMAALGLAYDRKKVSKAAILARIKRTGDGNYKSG

human SCD5 = target: T2, human SCD5 (Homo sapiens, UniProt Q86SK9); test: Growth inhibition of yeast strain expressing human SCD5 as sole desaturase (OLE1 deleted), OD600 readout; assay type: cell-based; details: yeast strain expressing human SCD5 as sole desaturase; growth (OD600) after 40 h at 30° C.; read-out: SCD5 IC50
T2 construct: expressed in transfected cells; host or cells: yeast strain with OLE1 deleted, plasmid-borne human SCD5 (selected in SD-Ura)
T2 sequence (Q86SK9 1-330): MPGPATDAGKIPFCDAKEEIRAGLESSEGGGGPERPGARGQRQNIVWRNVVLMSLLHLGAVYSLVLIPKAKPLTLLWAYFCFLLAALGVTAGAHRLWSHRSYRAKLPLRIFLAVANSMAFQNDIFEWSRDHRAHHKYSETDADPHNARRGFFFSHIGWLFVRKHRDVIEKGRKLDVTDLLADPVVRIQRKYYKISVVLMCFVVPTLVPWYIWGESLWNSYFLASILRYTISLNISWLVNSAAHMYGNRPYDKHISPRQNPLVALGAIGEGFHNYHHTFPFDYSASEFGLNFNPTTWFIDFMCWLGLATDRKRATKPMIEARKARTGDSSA

SMILES	IC50 (human SCD1)	IC50 (human SCD5)
CN1N=C(C(=O)Nc2ncc(Cc3cccc(Cl)c3)s2)CCC1=O [Compound 207, N-(5-(3-chlorobenzyl)thiazol-2-yl)-1-methyl-6-oxo-1,4,5,6-tetrahydropyridazine-3-carboxamide]	90 nM	10 nM
CN1N=C(C(=O)Nc2ncc(C(O)c3cccc(F)c3)s2)CCC1=O (stereo not drawn) [Compound 205, N-(5-((3-fluorophenyl)(hydroxy)methyl)thiazol-2-yl)-1-methyl-6-oxo-1,4,5,6-tetrahydropyridazine-3-carboxamide]	> 45000 nM	29400 nM
Cn1nc(C(=O)Nc2ccc(Oc3cc(F)cc(Cl)c3)cn2)ccc1=O [Compound 586]	> 45000 nM	1300 nM
Cc1nnc(C(=O)Nc2ccc(Cc3cccc(Cl)c3)cn2)s1 [Compound 103, N-(5-(3-chlorobenzyl)pyridin-2-yl)-5-methyl-1,3,4-thiadiazole-2-carboxamide]	160 nM	80 nM
Cn1nc(C(=O)N2CCC(Oc3cccc(Cl)c3)CC2)ccc1=O [Compound 432]	> 45000 nM	> 45000 nM
Cc1ccc(C(=O)Nc2ccc(Cc3cccc(Cl)c3)cn2)nn1 [Compound 243]	60 nM	10 nM
COc1ccc(Cn2c(C(=O)Nc3ccc(Cc4cccc(F)c4)cn3)cc(=O)n2C)cc1 [Compound 455]	> 45000 nM	> 45000 nM
N#Cc1cc(Cl)cc(Cc2ccc(NC(=O)c3ccnnc3)nc2)c1 [Compound 669]	220 nM	73 nM
CN1N=C(C(=O)Nc2ccc(Cc3cccc(Cl)c3)cc2)CCC1=O [Compound 2, N-(4-(3-chlorobenzyl)phenyl)-1-methyl-6-oxo-1,4,5,6-tetrahydropyridazine-3-carboxamide]	> 45000 nM	2650 nM
CC(C)n1cc(C(=O)Nc2ccc(Oc3cccc(Cl)c3)cn2)ccc1=O [Compound 166, N-[5-(3-chlorophenoxy)pyridin-2-yl]-6-oxo-1-(propan-2-yl)-1,6-dihydropyridine-3-carboxamide]	14700 nM	9360 nM
O=C(Nc1ccc(Cc2cccc(Cl)c2)cn1)c1ccc(CO)nn1 [Compound 122, N-(5-(3-chlorobenzyl)pyridin-2-yl)-6-(hydroxymethyl)pyridazine-3-carboxamide]	10 nM	10 nM
CN1N=C(C(=O)Nc2ncc(Cc3ccccc3F)s2)CCC1=O [Compound 206, N-(5-(2-fluorobenzyl)thiazol-2-yl)-1-methyl-6-oxo-1,4,5,6-tetrahydropyridazine-3-carboxamide]	3360 nM	2510 nM
CN1N=C(C(=O)Nc2cc(Cc3cccc(Cl)c3)cnc2N)CCC1=O [Compound 471]	> 45000 nM	> 45000 nM
Cn1nc(C(=O)Nc2ccc(CC3CCCCC3)cn2)ccc1=O [Example 38, N-(5-(cyclohexylmethyl)pyridin-2-yl)-1-methyl-6-oxo-1,6-dihydropyridazine-3-carboxamide]	15700 nM	890 nM
Cn1nc(C(=O)Nc2ccc(COc3ccc(Cl)cc3)cn2)ccc1=O [Compound 670]	> 45000 nM	1800 nM
Cn1cc(NC(=O)c2ncc(Cc3ccc(F)c(F)c3)cc2F)ccc1=O [Compound 625]	4800 nM	310 nM
CC(C)Cc1ccc(NC(=O)c2ccc(=O)n(C)n2)nn1 [Compound 395]	> 45000 nM	> 45000 nM
N#Cc1ccc(C(=O)Nc2ccc(COc3cccc(Cl)c3)cn2)cn1 [Compound 492]	> 45000 nM	5800 nM
Cn1cc(C(=O)Nc2ccc(Cc3cncc(Cl)c3)cn2)ccc1=O [Compound 276]	> 45000 nM	950 nM
CN1N=C(C(=O)Nc2ccc(Cc3ccc(C#N)c(Cl)c3)cn2)CCC1=O [Example 33, N-(5-(3-chloro-4-cyanobenzyl)pyridin-2-yl)-1-methyl-6-oxo-1,4,5,6-tetrahydropyridazine-3-carboxamide]	> 45000 nM	18000 nM
COCc1ncc(C(=O)Nc2ccc(Cc3cccc(Cl)c3)cn2)cn1 [Compound 479]	12000 nM	680 nM
